Data: ChEMBL document CHEMBL5149999, “The Alkaloids from Lophophora diffusa and Other "False Peyotes"” (J Nat Prod, 2021)

Assays:
[1] = molecular target: Trace amine-associated receptor 1 (Mus musculus, UniProt Q923Y8); test: Agonist activity at mouse TAAR1 stably expressed in HEK293 cells incubated for 30 mins by cAMP assay; type: functional, cell-based
[2] = molecular target: Trace amine-associated receptor 1 (Rattus norvegicus, UniProt Q923Y9); test: Agonist activity at rat TAAR1 stably expressed in HEK293 cells incubated for 30 mins by cAMP assay; type: functional, cell-based
Chain of Trace amine-associated receptor 1 (Rattus norvegicus, UniProt Q923Y9) (Q923Y9 whole entry): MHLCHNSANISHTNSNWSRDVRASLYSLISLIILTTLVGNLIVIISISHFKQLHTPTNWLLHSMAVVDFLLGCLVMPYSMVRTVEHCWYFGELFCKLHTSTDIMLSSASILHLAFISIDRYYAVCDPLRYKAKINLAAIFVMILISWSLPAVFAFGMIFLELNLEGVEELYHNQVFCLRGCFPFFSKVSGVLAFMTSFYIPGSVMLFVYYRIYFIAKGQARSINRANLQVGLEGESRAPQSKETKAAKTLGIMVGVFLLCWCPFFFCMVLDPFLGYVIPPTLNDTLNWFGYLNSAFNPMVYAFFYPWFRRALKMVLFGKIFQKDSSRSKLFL

[3] = molecular target: T1, Trace amine-associated receptor 1 (Homo sapiens, UniProt Q96RJ0); test: Agonist activity at human TAAR1 stably expressed in HEK293 cells incubated for 30 mins by cAMP assay; type: functional, cell-based
T1 sequence (Q96RJ0 whole entry): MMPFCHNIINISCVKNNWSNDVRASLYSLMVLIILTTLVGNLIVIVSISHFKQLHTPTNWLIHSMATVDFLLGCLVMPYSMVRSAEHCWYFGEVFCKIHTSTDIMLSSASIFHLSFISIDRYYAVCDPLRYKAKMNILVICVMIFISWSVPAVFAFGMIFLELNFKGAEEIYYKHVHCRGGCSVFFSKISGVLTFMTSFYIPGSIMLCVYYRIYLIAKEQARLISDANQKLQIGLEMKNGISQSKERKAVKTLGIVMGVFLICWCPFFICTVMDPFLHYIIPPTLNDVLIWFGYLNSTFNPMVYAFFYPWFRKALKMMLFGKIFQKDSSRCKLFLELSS

[4] = Acute toxicity in po dosed mouse assessed as lethal dose incubated for 72 hrs; type: organism-based; settings: in vivo
[5] = Drug tolerance in sc dosed dog; type: toxicity, organism-based, Canis lupus familiaris; settings: in vivo
[6] = Acute toxicity in ip dosed mouse assessed as lethal dose incubated for 24 hrs; type: organism-based; settings: in vivo
[7] = Acute toxicity in iv dosed mouse assessed as lethal dose incubated for 72 hrs; type: organism-based; settings: in vivo
[8] = molecular target: Sigma non-opioid intracellular receptor 1 (Homo sapiens, UniProt Q99720); test: Binding affinity to sigma 1 receptor (unknown origin) assessed as dissociation constant by competitive binding assay
Chain of Sigma non-opioid intracellular receptor 1 (Q99720 whole entry): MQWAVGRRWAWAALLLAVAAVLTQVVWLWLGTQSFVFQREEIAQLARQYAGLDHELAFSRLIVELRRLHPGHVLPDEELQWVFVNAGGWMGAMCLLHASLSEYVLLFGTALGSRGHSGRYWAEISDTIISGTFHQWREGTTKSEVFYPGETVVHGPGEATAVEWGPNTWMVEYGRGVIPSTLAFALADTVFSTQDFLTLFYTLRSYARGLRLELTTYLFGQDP

[9] = molecular target: Sigma intracellular receptor 2 (Homo sapiens, UniProt Q5BJF2); test: Binding affinity to sigma 2 receptor (unknown origin) assessed as dissociation constant by competitive binding assay
Chain of Sigma intracellular receptor 2 (Q5BJF2 whole entry): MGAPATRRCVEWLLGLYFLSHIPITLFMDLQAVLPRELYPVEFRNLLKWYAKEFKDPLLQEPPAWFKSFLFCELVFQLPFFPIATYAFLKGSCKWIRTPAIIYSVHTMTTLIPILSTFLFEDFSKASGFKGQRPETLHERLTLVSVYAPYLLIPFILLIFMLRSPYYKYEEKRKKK

Chain of Trace amine-associated receptor 1 (Mus musculus, UniProt Q923Y8) (Q923Y8 whole entry): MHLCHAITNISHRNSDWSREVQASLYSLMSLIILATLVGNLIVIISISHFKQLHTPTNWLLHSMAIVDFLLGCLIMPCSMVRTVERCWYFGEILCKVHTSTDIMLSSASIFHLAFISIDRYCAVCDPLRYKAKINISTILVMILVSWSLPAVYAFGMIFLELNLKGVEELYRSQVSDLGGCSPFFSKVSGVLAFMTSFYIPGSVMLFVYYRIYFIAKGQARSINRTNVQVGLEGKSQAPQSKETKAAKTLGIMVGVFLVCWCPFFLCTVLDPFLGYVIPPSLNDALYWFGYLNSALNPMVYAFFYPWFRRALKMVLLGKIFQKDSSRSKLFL

SMILES: NCCc1ccc(O)cc1 [TYRAMINE]
- EC50 [1]: 280 nM
- EC50 [2]: 30 nM
- EC50 [3]: 990 nM

SMILES: COc1cc2c(c(O)c1OC)C(C)N(C)CC2 (centres undefined)
- LD50 at 72 h [4]: 200 mg/kg
- Activity [5]: 50 mg/kg
- LD50 at 24 h [6]: 115 mg/kg
- LD50 at 72 h [7]: 52.2 mg/kg

SMILES: CNCCc1ccc(O)cc1
- Kd [8]: 12400 nM
- Kd [9]: 6600 nM
